Reference: patent US6812380B2, “Compositions and methods of zearalenone detoxification” (Pioneer Hi-Bred International, Inc., priority 2001, dated 2004)

What was measured:
[1] = biological target: T1, ZES2b translation products (Bionectria ochroleuca, UniProt Q8NKB0, A65V/H263Y/S41R/T3I); assay type: biochemical, Gliocladium roseum; settings: 37° C. for 16 hours
T1 construct: made in house; host or cells: cell-free coupled transcription/translation (Roche RTS500; T7 polymerase, E. coli ribosomes) from plasmids pFMB35-34 (cDNA) and pFMB35-13 (genomic DNA)
T1 sequence (Q8NKB0 1-264 T3I/S41R/A65V/H263Y): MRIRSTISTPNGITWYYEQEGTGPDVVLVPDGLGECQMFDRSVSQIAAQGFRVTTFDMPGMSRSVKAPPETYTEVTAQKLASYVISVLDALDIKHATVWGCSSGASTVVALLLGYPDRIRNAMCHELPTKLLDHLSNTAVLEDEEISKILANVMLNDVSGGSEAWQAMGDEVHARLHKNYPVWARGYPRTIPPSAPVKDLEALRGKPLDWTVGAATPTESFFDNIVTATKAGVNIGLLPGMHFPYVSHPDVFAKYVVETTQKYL

[2] = system: zearalenone esterase synthesis in G. roseum; settings: cited from earlier work
[3] = system: human breast cancer cells; settings: cited from earlier work
rats = settings: rat, in vivo; cited from earlier work
uterine tissues = settings: mouse, in vivo; cited from earlier work
mice = settings: mouse, in vivo; cited from earlier work
Armenian hamster = settings: in vivo; cited from earlier work
humans = settings: in vivo; cited from earlier work
[4] = system: ZES1, ZES2, and ZES2b transcripts; assay: Differential transcript profiling (Curagen Profiling) of G. roseum cultures; assay type: cell-based, Gliocladium roseum; settings: G. roseum cultured with 10 μg/ml for 12 hours at 22° C.
Protocol: The ZES1, ZES2, and ZES2b sequences of the invention were identified by assaying for differential expression patterns in the presence of α-zearalenol and β-zearalenol, which allowed for identification of the nucleotide sequences of the invention. Specifically, G. roseum was cultured in the presence of either 10 μg/ml α-zearalenol or 10 μg/ml β-zearalenol for 12 hours at 22° C. Following culturing, Curagen Profiling technology was used to identify transcripts present in α-zearalenol-induced cultures but absent in β-zearalenol-induced cultures.

| Structure (SMILES) | degradation of substrate after incubation with the translation product of pFMB35-13 [1] | degradation of substrate after incubation with the translation product of pFMB35-34 [1] | induction of synthesis of zearalenone esterase in G. roseum [2] | entry of human breast cancer cells into the cell cycle [3] | teratogenicity (rats) | modulation of uterine tissues (uterine tissues) | carcinogenicity (mice) | induction of hepatic carcinomas (Armenian hamster) | estrogenic effects in humans (humans) | hyperestrogenic syndrome in humans (humans) | expression of ZES1, ZES2, and ZES2b transcripts in induced cultures [4] |
| --- | --- | --- | --- | --- | --- | --- | --- | --- | --- | --- | --- |
| C[C@H]1CCCC(=O)CCC/C=C/c2cc(O)cc(O)c2C(=O)O1 [zearalenone] | completely degraded | completely degraded | occurs only when zearalenone or its derivative α-zearalenol is present in the culture medium | stimulates human breast cancer cells to enter the cell cycle | teratogenic | induce modulation of uterine tissues | carcinogenic | induce hepatic carcinomas | exhibits estrogenic effects | causes hyperestrogenic syndrome | – |
| C[C@H]1CCC[C@H](O)CCC/C=C/c2cc(O)cc(O)c2C(=O)O1 [α-zearalenol] | completely degraded | completely degraded | occurs only when zearalenone or its derivative α-zearalenol is present in the culture medium | – | – | – | – | – | – | – | upregulated |
| C[C@H]1CCC[C@@H](O)CCC/C=C/c2cc(O)cc(O)c2C(=O)O1 [β-zearalenol] | completely degraded | completely degraded | does not induce synthesis of zearalenone esterase | – | – | – | – | – | – | – | – |
